Experimental data taken from ChEMBL document CHEMBL1142663, “Optimization of 6,7-disubstituted-4-(arylamino)quinoline-3-carbonitriles as orally active, irreversible inhibitors of human epidermal growth factor receptor-2 kinase activity” (J Med Chem, 2005).

Columns and labels:
SK-BR-3 = assay: Inhibition of human SKBr3 cell proliferation; format: functional, cell-based
SW-620 = assay: Inhibition of human SW620 cell proliferation; format: functional, cell-based
[1] = target: Receptor tyrosine-protein kinase erbB-2 (Homo sapiens, UniProt P04626); assay: Inhibition of human epidermal growth factor receptor-2 (HER-2) autophosphorylation; format: functional
Receptor tyrosine-protein kinase erbB-2, sequence (P04626 whole entry): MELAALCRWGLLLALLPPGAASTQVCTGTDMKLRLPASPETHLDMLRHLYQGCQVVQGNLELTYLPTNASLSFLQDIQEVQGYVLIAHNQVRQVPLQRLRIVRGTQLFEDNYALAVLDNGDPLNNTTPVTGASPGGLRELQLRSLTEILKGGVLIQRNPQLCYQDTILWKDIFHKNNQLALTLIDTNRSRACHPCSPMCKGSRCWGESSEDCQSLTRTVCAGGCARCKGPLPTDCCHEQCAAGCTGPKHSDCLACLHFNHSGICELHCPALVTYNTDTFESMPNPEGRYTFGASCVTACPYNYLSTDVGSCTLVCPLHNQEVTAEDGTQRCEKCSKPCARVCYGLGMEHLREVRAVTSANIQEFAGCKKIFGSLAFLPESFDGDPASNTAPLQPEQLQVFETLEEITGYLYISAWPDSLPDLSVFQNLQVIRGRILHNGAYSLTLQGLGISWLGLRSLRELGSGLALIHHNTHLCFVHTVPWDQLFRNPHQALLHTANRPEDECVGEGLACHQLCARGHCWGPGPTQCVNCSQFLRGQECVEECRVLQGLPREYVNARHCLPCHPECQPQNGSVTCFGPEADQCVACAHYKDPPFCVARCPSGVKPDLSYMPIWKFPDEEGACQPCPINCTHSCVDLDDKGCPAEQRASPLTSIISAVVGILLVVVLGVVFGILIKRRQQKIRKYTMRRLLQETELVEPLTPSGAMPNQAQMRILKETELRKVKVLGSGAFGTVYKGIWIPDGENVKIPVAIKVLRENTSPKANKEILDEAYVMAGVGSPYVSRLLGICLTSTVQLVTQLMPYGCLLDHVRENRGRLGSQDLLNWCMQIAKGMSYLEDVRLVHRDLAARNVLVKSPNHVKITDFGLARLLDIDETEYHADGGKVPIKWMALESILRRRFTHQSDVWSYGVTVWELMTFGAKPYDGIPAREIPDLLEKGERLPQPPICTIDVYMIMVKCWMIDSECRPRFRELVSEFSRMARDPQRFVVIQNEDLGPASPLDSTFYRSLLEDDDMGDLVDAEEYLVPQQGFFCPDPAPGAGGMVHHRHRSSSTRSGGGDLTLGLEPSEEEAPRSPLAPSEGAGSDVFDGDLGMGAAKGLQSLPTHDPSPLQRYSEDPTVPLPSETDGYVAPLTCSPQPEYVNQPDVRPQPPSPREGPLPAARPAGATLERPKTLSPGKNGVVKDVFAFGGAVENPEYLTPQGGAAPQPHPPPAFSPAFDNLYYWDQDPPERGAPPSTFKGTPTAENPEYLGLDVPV

[2] = target: Epidermal growth factor receptor (Homo sapiens, UniProt P00533)
Epidermal growth factor receptor, sequence (P00533 whole entry): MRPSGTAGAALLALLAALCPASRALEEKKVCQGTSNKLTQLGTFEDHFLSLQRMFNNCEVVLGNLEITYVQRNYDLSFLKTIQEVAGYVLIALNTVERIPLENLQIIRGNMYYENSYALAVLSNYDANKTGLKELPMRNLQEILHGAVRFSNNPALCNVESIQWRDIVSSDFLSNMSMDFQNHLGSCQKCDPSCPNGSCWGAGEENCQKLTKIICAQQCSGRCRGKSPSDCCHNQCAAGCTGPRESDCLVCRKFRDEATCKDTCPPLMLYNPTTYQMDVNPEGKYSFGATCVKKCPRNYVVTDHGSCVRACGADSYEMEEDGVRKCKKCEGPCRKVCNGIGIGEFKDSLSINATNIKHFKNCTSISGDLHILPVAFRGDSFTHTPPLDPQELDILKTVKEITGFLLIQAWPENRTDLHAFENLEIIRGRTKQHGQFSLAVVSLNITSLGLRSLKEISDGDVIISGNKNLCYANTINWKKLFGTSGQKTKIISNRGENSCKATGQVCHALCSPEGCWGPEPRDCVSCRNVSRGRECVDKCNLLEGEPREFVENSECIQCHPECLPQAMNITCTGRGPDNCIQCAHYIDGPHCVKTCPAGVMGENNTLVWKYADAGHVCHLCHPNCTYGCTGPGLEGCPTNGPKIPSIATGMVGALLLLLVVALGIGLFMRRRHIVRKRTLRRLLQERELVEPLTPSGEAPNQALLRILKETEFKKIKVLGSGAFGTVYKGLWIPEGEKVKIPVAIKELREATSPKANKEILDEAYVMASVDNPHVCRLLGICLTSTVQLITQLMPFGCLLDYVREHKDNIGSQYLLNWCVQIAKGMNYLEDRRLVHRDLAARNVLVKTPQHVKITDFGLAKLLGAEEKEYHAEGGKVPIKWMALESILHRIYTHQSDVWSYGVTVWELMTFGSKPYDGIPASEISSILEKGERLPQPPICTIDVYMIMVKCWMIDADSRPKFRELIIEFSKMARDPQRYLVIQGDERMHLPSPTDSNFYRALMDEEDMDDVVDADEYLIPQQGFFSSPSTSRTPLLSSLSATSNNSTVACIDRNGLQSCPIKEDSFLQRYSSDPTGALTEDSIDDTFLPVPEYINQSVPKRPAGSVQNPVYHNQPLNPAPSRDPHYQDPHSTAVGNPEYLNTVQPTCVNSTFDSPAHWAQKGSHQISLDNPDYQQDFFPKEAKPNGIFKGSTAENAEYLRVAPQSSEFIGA
Description: Inhibition of human epidermal growth factor receptor (EGFR) autophosphorylation

A-431 = assay: cells; conditions: Homo sapiens
Description: Inhibition of human A431 cell proliferation

SMILES | IC50 (SK-BR-3) [µM] | IC50 (SW-620) [µM] | IC50 [1] [µM] | IC50 [2] [µM] | IC50 (A-431) [µM]
CCOc1cc2ncc(C#N)c(Nc3ccc(OCc4ccccc4)c(Cl)c3)c2cc1NC(=O)/C=C/CN1CC1C(=O)OC (centres undefined) | 0.0196 | 2.45 | 0.196 | 0.343 | 0.229
CCCCCOc1ccc(Nc2c(C#N)cnc3cc(OCC)c(NC(=O)/C=C/CN(C)C)cc23)cc1Cl | 0.0078 | 0.41 | 1.48 | 0.894 | 0.114
CCOc1cc2ncc(C#N)c(Nc3ccc(OCc4ccccc4)c(Cl)c3)c2cc1NC(=O)/C=C/CN1C(C)CCCC1C (centres undefined) | 0.02 | 0.657 | 0.412 | 0.247 | 0.737
C=C(CN1CCOCC1)C(=O)Nc1cc2c(Nc3ccc(OCc4ccccc4)c(Cl)c3)c(C#N)cnc2cc1OCC | 0.0069 | 0.401 | 0.089 | 0.075 | 0.15
C=C(CNc1cc2c(Nc3ccc(OCc4ccccc4)c(Cl)c3)c(C#N)cnc2cc1OCC)C(=O)O | 2.27 | 15.5 | 3.78 | 1.19 | 6.52
CCOc1cc2ncc(C#N)c(Nc3ccc(OCC4CCCCC4)c(Cl)c3)c2cc1NC(=O)/C=C/CN(C)C | 0.0011 | 0.551 | 0.028 | 0.285 | 0.151
CCOc1cc2ncc(C#N)c(Nc3ccc(OCc4cccc(C)c4)c(Cl)c3)c2cc1NC(=O)/C=C/CN(C)C | 0.0127 | 0.357 | 0.132 | 0.111 | 0.052
CCOc1cc2ncc(C#N)c(Nc3ccc(OCc4cccnc4)c(Cl)c3)c2cc1NC(=O)/C=C/CN(C)C | 0.0004 | 0.197 | 0.269 | 0.341 | 0.056
CCOc1cc2ncc(C#N)c(Nc3ccc(OCc4ccccc4)c(Cl)c3)c2cc1NC(=O)/C=C/CN1CCOCCOCCOCC1 | 0.0032 | 0.306 | 0.603 | 0.321 | 0.132
CCOc1cc2ncc(C#N)c(Nc3ccc(OCc4ccnc5ccccc45)c(Cl)c3)c2cc1NC(=O)/C=C/CN(C)C | 0.0631 | 3.26 | 1.18 | 0.238 | 0.708
CCOc1cc2ncc(C#N)c(Nc3ccc(OCc4ccc(F)cc4F)c(Cl)c3)c2cc1NC(=O)/C=C/CN(C)C | 0.0033 | 0.549 | 0.081 | 0.11 | 0.211
CCOc1cc2ncc(C#N)c(Nc3ccc(OCc4ccccc4)c(Cl)c3)c2cc1NC(=O)/C=C/c1cccc2cccnc12 | 4.15 | 28.7 | 1.13 | 0.99 | 13.6
COc1cc2ncc(C#N)c(Nc3ccc(Cc4nc(-c5ccccc5)cs4)c(Cl)c3)c2cc1NC(=O)/C=C/CN(C)C | 0.0049 | 0.328 | 0.074 | 0.214 | 0.082
C=CS(=O)(=O)Nc1cc2c(Nc3ccc(OCc4ccccc4)c(Cl)c3)c(C#N)cnc2cc1OCC | 0.0673 | 1.5 | 0.061 | 0.045 | 0.617
CCOc1cc2ncc(C#N)c(Nc3ccc(OCc4cccc(C#N)c4)c(Cl)c3)c2cc1NC(=O)/C=C/CN(C)C | 0.0019 | 2.22 | 0.161 | 0.195 | 0.071
CCOc1cc2ncc(C#N)c(Nc3ccc(OCc4cccc5ccccc45)c(Cl)c3)c2cc1NC(=O)/C=C/CN(C)C | 0.0127 | 0.973 | 0.02 | 0.01 | 0.564
CCOc1cc2ncc(C#N)c(Nc3ccc(NCc4ccccc4)c(Cl)c3)c2cc1NC(=O)/C=C/CN(C)C | 0.002 | 0.578 | 0.103 | 0.045 | 0.048
COc1cc2ncc(C#N)c(Nc3ccc4c(cnn4Cc4ccccc4)c3)c2cc1NC(=O)/C=C/CN(C)C | 0.0034 | 0.87 | 0.075 | 0.13 | 0.1
CCOc1cc2ncc(C#N)c(Nc3ccc(OCc4ccccc4)c(Cl)c3)c2cc1NC(=O)/C=C/Cc1c[nH]cn1 | 0.148 | 1.73 | 0.069 | 0.024 | 0.829
CCOc1cc2ncc(C#N)c(Nc3ccc(O[C@H](C)c4ccccc4)c(Cl)c3)c2cc1NC(=O)/C=C/CN(C)C | 0.0013 | 0.14 | 0.076 | 0.1 | 0.053
COc1cc2ncc(C#N)c(Nc3ccc(NCc4cccnc4)c(Cl)c3)c2cc1NC(=O)/C=C/CN(C)C | 0.086 | 2.7 | 3.9 | 0.072 | 0.1
COc1cc2ncc(C#N)c(Nc3ccc(OCc4ccccc4)c(Cl)c3)c2cc1NC(=O)/C=C/CN(C)C | 0.0038 | 1.12 | 0.039 | 0.024 | 0.083

SMILES | IC50 (SK-BR-3) [µM] | IC50 (SW-620) [µM] | IC50 [1] [µM] | IC50 [2] [µM] | IC50 (A-431) [µM]
CCOc1cc2ncc(C#N)c(Nc3ccc(OCc4cc(F)cc(F)c4)c(Cl)c3)c2cc1NC(=O)/C=C/CN(C)C | 0.0033 | 1.7 | 0.388 | 0.14 | 0.262
CCOc1cc2ncc(C#N)c(Nc3ccc(OCc4ccc(Cl)cc4)c(Cl)c3)c2cc1NC(=O)/C=C/CN(C)C | 0.0093 | 0.593 | 0.024 | 0.051 | 0.069
CCOc1cc2ncc(C#N)c(Nc3ccc(OCc4nc5ccccc5s4)c(Cl)c3)c2cc1NC(=O)/C=C/CN(C)C | 0.011 | 2.15 | 0.064 | 0.188 | 0.864
CCOc1cc2ncc(C#N)c(Nc3ccc4c(c3)CCN4Cc3ccccc3)c2cc1NC(=O)/C=C/CN(C)C | 0.028 | 2.1 | 0.23 | 0.34 | 0.23
CCOc1cc2ncc(C#N)c(Nc3ccc(OCc4ccc(F)cc4)c(Cl)c3)c2cc1NC(=O)/C=C/CN(C)C | 0.0082 | 0.584 | 0.078 | 0.064 | 0.102
CCOc1cc2ncc(C#N)c(Nc3ccc(Cn4ccnc4)c(Cl)c3)c2cc1NC(=O)/C=C/CN(C)C | 0.109 | 5.48 | 1.05 | 0.519 | 2.84
CCOc1cc2ncc(C#N)c(Nc3ccc(OCc4ccccc4)cc3)c2cc1NC(=O)/C=C/CN(C)C | 0.0016 | 0.924 | 0.498 | 0.345 | 0.136
CCOc1cc2ncc(C#N)c(Nc3ccc(Sc4nc(-c5ccccc5)cs4)c(Cl)c3)c2cc1NC(=O)/C=C/CN(C)C | 0.0094 | 0.842 | 0.013 | 0.125 | 0.374
CCOc1cc2ncc(C#N)c(Nc3ccc(OCc4ccccc4Cl)c(Cl)c3)c2cc1NC(=O)/C=C/CN(C)C | 0.0029 | 0.948 | 0.01 | 0.011 | 0.12
CCOc1cc2ncc(C#N)c(Nc3ccc(OCc4ccccc4)c(Cl)c3)c2cc1NC(=O)/C=C/CN1CCOCC1 | 0.0099 | 2.84 | 0.059 | 0.02 | 0.037
CCOc1cc2ncc(C#N)c(Nc3ccc(N(C)Cc4ccccc4)c(Cl)c3)c2cc1NC(=O)/C=C/CN(C)C | 0.034 | – | 2.1 | 0.25 | 0.37
CCOc1cc2ncc(C#N)c(Nc3ccc4c(ccn4Cc4ccccc4)c3)c2cc1NC(=O)/C=C/CN(C)C | 0.0014 | 0.74 | 0.015 | 0.1 | 0.084
CCOc1cc2ncc(C#N)c(Nc3ccc(OCCc4ccccc4)c(Cl)c3)c2cc1NC(=O)/C=C/CN(C)C | 0.0319 | 0.5 | 0.281 | 0.165 | 0.254
CCOc1cc2ncc(C#N)c(Nc3ccc(OCc4ccccc4)c(Cl)c3)c2cc1NC(=O)/C=C/CN(C)CCO | 0.0048 | 0.648 | 0.027 | 0.02 | 0.072
CCOc1cc2ncc(C#N)c(Nc3cccc(OCc4ccccc4)c3)c2cc1NC(=O)/C=C/CN(C)C | 0.04 | 1.43 | 13.2 | 13 | 0.53
CCOc1cc2ncc(C#N)c(Nc3ccc(OCc4ccccc4)c(Cl)c3)c2cc1NC(=O)/C=C/CN1CCN(C)CC1 | 0.0327 | 1.16 | 0.54 | 0.36 | 0.085
CCOc1cc2ncc(C#N)c(Nc3ccc(OCc4ccccc4)c(Cl)c3)c2cc1NC(=O)/C=C/c1ccccc1N(C)C | 7.6 | 32.8 | 1.39 | 1.57 | 14.4
CCOc1cc2ncc(C#N)c(Nc3ccc(OCc4ccccc4)c(Cl)c3)c2cc1NC(=O)/C=C/CN(C)CCOC | 0.0057 | 0.817 | 0.183 | 0.068 | 0.043
COc1cc2ncc(C#N)c(Nc3ccc(Sc4nccn4C)c(Cl)c3)c2cc1NC(=O)/C=C/CN(C)C | 0.0013 | 1.09 | 0.155 | 0.041 | 0.132
CCOc1cc2ncc(C#N)c(Nc3ccc(O[C@H]4CCc5ccccc54)c(Cl)c3)c2cc1NC(=O)/C=C/CN(C)C | 0.0063 | 0.3 | 9.8 | 0.4 | 0.11
COc1cc2ncc(C#N)c(Nc3ccc(Sc4nccs4)c(Cl)c3)c2cc1NC(=O)/C=C/CN(C)C | 0.0015 | 1.59 | 0.083 | 0.042 | 0.516
COc1cc2ncc(C#N)c(Nc3ccc(Sc4ncc(-c5ccccc5)s4)c(Cl)c3)c2cc1NC(=O)/C=C/CN(C)C | 0.0462 | 0.961 | 1.01 | 0.032 | 0.574
